13 molecules from patent US20130102009A1, “SIRTUIN ACTIVATORS AND ACTIVATION ASSAYS” (priority 2010, published 2013) can be followed below.

In general, EC50 refers to the concentration that produces a half-maximal response.

Test [1] addresses T1, SIRT1 (Homo sapiens, UniProt Q96EB6).
T1 sequence (Q96EB6 1-747): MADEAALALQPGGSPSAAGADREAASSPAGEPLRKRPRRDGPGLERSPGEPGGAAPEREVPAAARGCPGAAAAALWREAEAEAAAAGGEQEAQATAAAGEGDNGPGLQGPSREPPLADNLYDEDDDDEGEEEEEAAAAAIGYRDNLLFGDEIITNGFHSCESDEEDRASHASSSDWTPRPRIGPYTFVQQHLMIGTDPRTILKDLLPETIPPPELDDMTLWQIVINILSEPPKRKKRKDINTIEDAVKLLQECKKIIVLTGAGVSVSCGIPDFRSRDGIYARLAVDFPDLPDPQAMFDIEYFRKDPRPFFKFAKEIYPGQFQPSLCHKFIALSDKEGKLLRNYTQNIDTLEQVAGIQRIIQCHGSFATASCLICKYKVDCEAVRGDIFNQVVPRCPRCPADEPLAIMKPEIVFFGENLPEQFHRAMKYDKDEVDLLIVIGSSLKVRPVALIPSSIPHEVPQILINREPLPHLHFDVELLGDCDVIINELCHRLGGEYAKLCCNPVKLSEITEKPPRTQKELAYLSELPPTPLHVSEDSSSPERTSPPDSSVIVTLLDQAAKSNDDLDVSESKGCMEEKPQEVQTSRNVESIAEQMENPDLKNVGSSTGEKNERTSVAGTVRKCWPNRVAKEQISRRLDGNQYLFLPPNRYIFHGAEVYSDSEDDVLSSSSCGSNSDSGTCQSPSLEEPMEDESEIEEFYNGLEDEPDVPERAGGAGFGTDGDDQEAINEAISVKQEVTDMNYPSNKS
In words: Mass spectrometry based SIRT1 activation assay (TAMRA/5TMR-labeled 20mer peptide). The test is classed as biochemical. Conditions: for Emax: 25 min, percent maximum fold activation of SIRT1, read-out: % FOLD ACT.; for EC1.5 uM: concentration that results in 150% activation of SIRT1. The text has this:
A mass spectrometry based assay was used to identify modulators of SIRTI activity. The mass spectrometry based assay utilizes a peptide having 20 amino acid residues as follows: Ac-EE-K(biotin)-GQSTSSHSK(Ac)NleSTEG-K(5TMR)-EE-NH2 (SEQ ID NO: 1) wherein K(Ac) is an acetylated lysine residue and Nle is a norleucine. The peptide is labeled with the fluorophore 5TMR (excitation 540 nrnIemission 580 nm) at the C-terminus. The sequence of the peptide substrate is based on p53 with several modifications. In addition, the methionine residue naturally present in the sequence was replaced with the norleucine because the methionine may be susceptible to oxidation during synthesis and purification.
The mass spectrometry assay is conducted as follows: 0.5 J-1M peptide substrate and 120 μM βNAD^+ is incubated with 10 nM SIRT1 for 25 minutes at 25° C. in a reaction buffer (50 mM Tris-acetate pH 8, 137 mM NaCl, 2.7 mM KCl, 1 mM MgClz, 5 mM DTT, 0.05% BSA). Test compounds may be added to the reaction as described above. The SirTI gene is cloned into a T7-promoter containing vector and transformed into BL21 (DE3). After the 25 minute incubation with SIRT1, 10 μL of 10% formic acid is added to stop the reaction. Reactions are sealed and frozen for later mass spec analysis. Determination of the mass of the substrate peptide allows for precise determination of the degree of acetylation (i.e. starting material) as compared to deacetylated peptide (product).
A control for inhibition of sirtuin activity is conducted by adding 1 μL of 500 mM nicotinamide as a negative control at the start of the reaction (e.g., permits determination of maximum sirtuin inhibition). A control for activation of sirtuin activity is conducted using 10 nM of sirtuin protein, with 1 μL of DMSO in place of compound, to determine the amount of deacetylation of the substrate at a given timepoint within the linear range of the assay. This timepoint is the same as that used for test compounds and, within the linear range, the endpoint represents a change in velocity.
For the above assay, SIRTI protein was expressed and purified as follows. The SirT1 gene was cloned into a T7-promoter containing vector and transformed into BL21(DE3). The protein was expressed by induction with 1 mM IPTG as an N-terminal His-tag fusion protein at 18° C. overnight and harvested at 30,000×g. Cells were lysed with lysozyme in lysis buffer (50 mM Tris-HCl, 2 mM Tris[2-carboxyethyl]phosphine (TCEP), 10 μM ZnCl2, 200 mM NaCl) and further treated with sonication for 10 min for complete lysis. The protein was purified over a Ni-NTA column (Amersham) and fractions containing pure protein were pooled, concentrated and run over a sizing column (Sephadex S200 26/60 global). The peak containing soluble protein was collected and run on an Ion-exchange column (MonoQ). Gradient elution (200 mM-500 mM NaCl) yielded pure 20 protein. This protein was concentrated and dialyzed against dialysis buffer (20 mM TrisHCl, 2 mM TCEP) overnight. The protein was aliquoted and frozen at −80° C. until further use.
Sirtuin modulating compounds that activated SIRT1 were identified using the assay described above and are shown below in Table 4. The EC1.5 values represent the concentration of test compounds that result in 150% activation of SIRT1. The EC1.5 values for the activating compounds are represented by A (EC1.5≦1 μM), B (EC1.5>1 μM). The percent maximum fold activation is represented by A (Fold activation ≧200%) or B (Fold Activation <200%).

In test [2] the target is T1, SIRT1. Briefly: Mass spectroscopic kinetic assay of SIRT1-catalyzed deacetylation of 20mer peptides. The test is classed as biochemical. On the procedure:
Bovine glutamate dehydrogenase (GDH), α-ketoglutarate, NADH and NAD^+ were from Sigma Chemical Company. […] The nicotinamidase PNC1 was prepared as described by Denu and colleagues (Smith et al. (2009) Anal Biochem 394, 101-109). Our collection of approximately 5,000 SIRT1 activators was screened using the BioTrove mass spectrometry system, as previously described (Milne et al. (2007) Nature 450, 712-716). […] Compounds were present at 10 μM, and the assays were conducted in a pH 7.4 buffer containing 150 mM Tris, 5 mM DTT, 1% DMSO, and 0.025% BSA. To determine the interaction of STACs with SIRT1 two kinetic methods were employed. […] (2007) Nature 450, 712-716). The other, used with peptides of general structure […], used a continuous, enzyme-coupled method reported previously (Smith et al. (2009) Anal Biochem 394, 101-109), in which the SRT1 product nicotinamide is first converted into nicotinic acid and ammonia by the action of PNC1, and the ammonia then used by GDH to convert α-ketoglutarate into glutamate. This reaction occurs with oxidation of NADH to NAD^+ which is accompanied by a change in absorbance at 340 nm (Δε340=-6,200 M^-1 cm^-1). Activator titrations were plotted as relative velocity (i.e., the ratio of vx, velocity in the presence of activator X, to vo, velocity in the absence of activator) vs. [X]o, initial concentration of activator, and fit by nonlinear least-squares to the mechanism-independent expression for enzyme activation of […] the maximum relative velocity (i.e., vx/vo at infinite [X]o) and EC50 is the activator concentration at which vx/vo=(RVmax-1)/2. EC50 is a function of the kinetic mechanisms of both catalysis and activation, and the concentrations of substrates.

Structures are written as SMILES. Several values for one entry are separate records, joined by “and”; a condition that tells them apart may be missing. Identical values can stand only once. Counter-ions that a name gives are not always drawn.

Turning to `CCCNc1cc(-c2nc3c(NC(=O)c4cccc(C5CCNC5)c4)cccc3[nH]2)ccn1` (stereo not shown) [Compound 15, N-(2-(2-(propylamino)pyridin-4-yl)-1H-benzo[d]imidazol-4-yl)-3-(pyrrolidin-3-yl)benzamide hydrochloride], on SIRT1 [1], the Emax was no less than 200% and the “EC1.5 uM” value is reported as “A (EC1.5≦1 μM)”.

In the case of `O=C(Nc1ccccc1-c1cn2c(CN3CCNCC3)csc2n1)c1cccc(-c2ccccc2)c1` [Compound 1, N-(2-(3-(piperazin-1-ylmethyl)imidazo[2,1-b]thiazol-6-yl)phenyl)biphenyl-3-carboxamide], at SIRT1 [1], the Emax was no less than 200% and the “EC1.5 uM” value was “A (EC1.5≦1 μM)”.

As for `CN(C)CCCNc1ccc(-c2nc3cc(NC(=O)c4cccc(CN5CCNCC5)c4)ccc3[nH]2)cn1` [Compound 18], on SIRT1 [1], the Emax was less than 200% and the “EC1.5 uM” value was “B (EC1.5>1 μM)”.

For `CC(C)CNCC1CC1C(=O)Nc1ccccc1-c1nc2cc(CN3CCNCC3)cnc2s1` (stereo not shown) [Compound 6], the “EC1.5 uM” value on SIRT1 [1] was “B (EC1.5>1 μM)”.

Regarding `O=C(Nc1ccccc1-c1nc2cc(CN3CC[C@@H](F)C3)cnc2s1)c1cccc(OC2CN3CCC2CC3)c1` (stereo partly drawn) [Compound 5, N-(2-(6-(((R)-3-fluoropyrrolidin-1-yl)methyl)thiazolo[5,4-b]pyridin-2-yl)phenyl)-3-(quinuclidin-3-yloxy)benzamide], at SIRT1 [1], the Emax was no less than 200% and the “EC1.5 uM” value is on record as “B (EC1.5>1 μM)”.

For `COc1ccc2nc(NC(=O)c3cccc4[nH]c(-c5ccc(N6CCNCC6)nc5)nc34)sc2c1` [Compound 19, N-(6-methoxybenzo[d]thiazol-2-yl)-2-(6-(piperazin-1-yl)pyridin-3-yl)-1H-benzo[d]imidazole-4-carboxamide], on SIRT1 [1], the Emax is no less than 200% and the “EC1.5 uM” value is “A (EC1.5≦1 μM)”.

`O=C(Nc1cccc(COC2CCNCC2)c1)c1cccc2[nH]c(-c3ccnc(N4CCOCC4)c3)nc12` [Compound 17, 2-(2-morpholinopyridin-4-yl)-N-(3-((piperidin-4-yloxy)methyl)phenyl)-1H-benzo[d]imidazole-4-carboxamide]: on SIRT1 [1], the Emax is no less than 200% and the “EC1.5 uM” value is “A (EC1.5≦1 μM)”.

`COc1ccc(C(=O)Nc2ccccc2-c2nc3cc(COC4CCNCC4)cnc3s2)cc1OC` [Compound 8, 3,4-dimethoxy-N-(2-(6-((piperidin-4-yloxy)methyl)thiazolo[5,4-b]pyridin-2-yl)phenyl)benzamide]: at SIRT1 [1], the Emax was no less than 200% and the “EC1.5 uM” value is on record as “A (EC1.5≦1 μM)”.

`N#Cc1ccc(NC(=O)c2cccc3[nH]c(-c4ccc(N5CCNCC5)nc4)nc23)cc1C(F)(F)F` [Compound 20, N-(4-cyano-3-(trifluoromethyl)phenyl)-2-(6-(piperazin-1-yl)pyridin-3-yl)-1H-benzo[d]imidazole-4-carboxamide]: on SIRT1 [1], the Emax was no less than 200% and the “EC1.5 uM” value is “A (EC1.5≦1 μM)”.

In the case of `CCCCN(CCCC)c1cc(-c2nc3c(C(=O)Nc4cccc(COC5CCNCC5)c4)cccc3[nH]2)ccn1` [Compound 21], on SIRT1 [1], the Emax is no less than 200% and the “EC1.5 uM” value is “A (EC1.5≦1 μM)”.

With `CC(C)Cc1nc(NC2CCNCC2)cc(C(=O)Nc2ccccc2-c2nc3cc(COC4CCNCC4)cnc3s2)n1` [Compound 11, 2-isobutyl-6-(piperidin-4-ylamino)-N-(2-(6-((piperidin-4-yloxy)methyl)thiazolo[5,4-b]pyridin-2-yl)phenyl)pyrimidine-4-carboxamide], at SIRT1 [1], the Emax was no less than 200% and the “EC1.5 uM” value is on record as “A (EC1.5≦1 μM)”. Moreover, the “Effect on the deacetylation of des(biotin,TAMRA)-peptide” value on SIRT1 [2] (substrate des(biotin,TAMRA)-peptide) was “none activate”. In addition, the “RVmax for activation of the deacetylation of desTAMRA-peptide” value at SIRT1 [2] (substrate desTAMRA-peptide, fit to eq (1)) is roughly 2.3. Further, the “RVmax for activation of the deacetylation of desTAMRA-peptide” value on SIRT1 [2] (substrate desTAMRA-peptide, fit to eq (1), listed as 23) was determined as 2.8±0.2. Further, the EC50 on SIRT1 [2] (substrate desTAMRA-peptide, fit to eq (1), read-out: EC50 for activation of the deacetylation of desTAMRA-peptide) is ~2000 nM and 2200 nM. Also, the “Ki,app for inhibition of the deacetylation of p53-20 mer” value at SIRT1 [2] (substrate p53-20 mer, RV=1/(1+([X]o/Ki,app))) is “inhibit”. Besides, the Ki at SIRT1 [2] (substrate p53-20 mer, RV=1/(1+([X]o/Ki,app)), read-out: Ki,app for inhibition of the deacetylation of p53-20 mer) was 10000 ± 1000 nM.

`CN(C)CCNCc1cccc(C(=O)Nc2ccccc2-c2nc3cc(COC4CCNCC4)cnc3s2)c1` [Compound 9]: on SIRT1 [1], the Emax was less than 200% and the “EC1.5 uM” value is “B (EC1.5>1 μM)”.

For the molecule `O=C(Nc1ccccc1-c1cn2c(CN3CCNCC3)csc2n1)c1nc2ncccc2o1` [Compound 3, N-(2-(3-(piperazin-1-ylmethyl)imidazo[2,1-b]thiazol-6-yl)phenyl)oxazolo[4,5-b]pyridine-2-carboxamide], at SIRT1 [1], the Emax is less than 200% and the “EC1.5 uM” value is listed as “B (EC1.5>1 μM)”.
